Test results taken from ChEMBL document CHEMBL1201862, “PubChem BioAssay data set” (2004).
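A five-concentration, 48-hour dose response in 96-well plates underlies each endpoint, interpolated linearly between surrounding concentrations. GI50 marks 50% less growth.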 Calls of active or inactive are those of the source. No stated cut-off is given here; in the data, active = GI50 up to about 1.1 µM and inactive = higher.

How the values were obtained:
Assay in all cases: NCI-60 cell line screen, 48 h
ACHN = test system: ACHN
A498 = test system: A498
RXF 393 = test system: RXF 393
MDA-MB-435 = test system: MDA-MB-435
HL-60 = test system: HL-60
OVCAR-8 = test system: OVCAR-8
M14 = test system: M14
HOP-62 = test system: HOP-62
RPMI-8226 = test system: RPMI-8226
SNB-75 = test system: SNB-75
NCI/ADR-RES = test system: NCI/ADR-RES
UACC-257 = test system: UACC-257
DU-145 = test system: DU-145
UO-31 = test system: UO-31
MDA-N = test system: MDA-N
T47D = test system: T47D
A549 = test system: A549
U-251 = test system: U-251
HCT-116 = test system: HCT-116
Malme-3M = test system: Malme-3M

Measured: GI50

COC(=O)CCSC1=CC(=O)c2nc3ccccc3c3ccnc1c23
inactive: ACHN 19.4 µM | A498 > 84.7 µM | RXF 393 20.3 µM | MDA-MB-435 7.4 µM | HL-60 3.61 µM | OVCAR-8 17.1 µM | M14 21.9 µM | HOP-62 33 µM | RPMI-8226 23.6 µM | SNB-75 > 100 µM | NCI/ADR-RES 15.3 µM | UACC-257 17.2 µM | DU-145 22.2 µM | UO-31 15.3 µM | MDA-N 28 µM | T47D 18.7 µM | A549 > 93.1 µM | U-251 32.4 µM | HCT-116 20.1 µM

COc1ccc(-c2[nH]c3c4c(nc5c(c24)C(=O)CC(C)(C)C5)CC(C)(C)C3)cc1
inactive: ACHN 95.5 µM | A498 28.6 µM | RXF 393 73.5 µM | MDA-MB-435 50.2 µM | HL-60 55.1 µM | OVCAR-8 52.6 µM | M14 > 100 µM | HOP-62 > 100 µM | SNB-75 34.4 µM | NCI/ADR-RES 48.8 µM | UACC-257 68.5 µM | DU-145 > 100 µM | UO-31 61.1 µM | MDA-N 47.4 µM | T47D 44.5 µM | A549 62.4 µM | U-251 48.9 µM | HCT-116 70 µM | Malme-3M > 100 µM

COc1ccc2c(c1)C(=O)C1CCC(=O)N1C2c1ccc2c(c1)OCO2 (stereo not given)
inactive: ACHN 12.1 µM | A498 17 µM | MDA-MB-435 6.21 µM | HL-60 2.79 µM | OVCAR-8 18.1 µM | M14 12.9 µM | HOP-62 18.6 µM | RPMI-8226 2.91 µM | SNB-75 14.9 µM | NCI/ADR-RES 22.7 µM | UACC-257 16.9 µM | DU-145 18.2 µM | UO-31 10.6 µM | MDA-N 8.32 µM | T47D 14.2 µM | A549 21 µM | U-251 15.2 µM | HCT-116 3.67 µM | Malme-3M 4.89 µM

CC(C)Oc1c(C2(c3ccccc3O)SCCCS2)c(=O)c1=O
inactive: ACHN > 100 µM | A498 62.8 µM | RXF 393 75.9 µM | MDA-MB-435 > 100 µM | HL-60 54.2 µM | OVCAR-8 > 100 µM | M14 > 100 µM | HOP-62 > 100 µM | SNB-75 36.1 µM | NCI/ADR-RES > 100 µM | UACC-257 > 100 µM | DU-145 93.3 µM | UO-31 47.9 µM | MDA-N > 100 µM | T47D 38.9 µM | A549 > 100 µM | U-251 > 100 µM | HCT-116 > 100 µM

COc1ccc2c(c1)OCC1Cc3ccccc3OC21 (stereo not given)
inactive: ACHN > 100 µM | A498 > 10 µM | MDA-MB-435 > 100 µM | HL-60 > 100 µM | OVCAR-8 > 100 µM | M14 69.5 µM | HOP-62 > 100 µM | RPMI-8226 75.7 µM | SNB-75 > 100 µM | NCI/ADR-RES > 100 µM | UACC-257 52 µM | DU-145 > 100 µM | UO-31 > 100 µM | MDA-N > 10 µM | T47D > 100 µM | A549 > 100 µM | U-251 > 10 µM | HCT-116 > 100 µM | Malme-3M > 100 µM

COC(=O)/C=C(\C(=O)OC)c1cc(C)c2cc(C(C)C)ccc(C)c1-2
inactive: ACHN 25.6 µM | A498 > 100 µM | RXF 393 41.4 µM | MDA-MB-435 30 µM | HL-60 34.7 µM | OVCAR-8 55.1 µM | M14 23.5 µM | HOP-62 34.8 µM | RPMI-8226 > 100 µM | NCI/ADR-RES 32 µM | DU-145 60.3 µM | UO-31 20.5 µM | MDA-N 19.5 µM | T47D 15.4 µM | A549 28.2 µM | U-251 51.1 µM | HCT-116 34 µM | Malme-3M 38.5 µM

O=C(O)C1CCCCC1c1c2ccc(=O)cc-2oc2cc(O)ccc12 (stereo not given)
inactive: ACHN 31.8 µM | A498 37.8 µM | RXF 393 18.7 µM | MDA-MB-435 13.4 µM | HL-60 54.6 µM | OVCAR-8 26.5 µM | M14 26.1 µM | RPMI-8226 23 µM | SNB-75 25.1 µM | NCI/ADR-RES 43.9 µM | UACC-257 65.3 µM | DU-145 26.5 µM | UO-31 61 µM | MDA-N 21.6 µM | T47D 19.1 µM | A549 38.4 µM | U-251 30.5 µM | HCT-116 31 µM | Malme-3M 29.7 µM

Cc1nn(CNc2ccc(F)c(Cl)c2)c(=S)n1/N=C/c1ccc(-c2ccc(Cl)cc2Cl)o1
inactive: ACHN 16.6 µM | A498 15.1 µM | RXF 393 17.9 µM | MDA-MB-435 17.6 µM | HL-60 1.44 µM | OVCAR-8 20.8 µM | M14 18.7 µM | HOP-62 14.1 µM | RPMI-8226 14.8 µM | NCI/ADR-RES 19.3 µM | UACC-257 22.3 µM | DU-145 16.9 µM | UO-31 16.7 µM | MDA-N 17.7 µM | T47D 18.5 µM | U-251 14.7 µM | HCT-116 15.7 µM

CCOC(=O)c1cc(C2CCN(CC(C)CC)C2=S)c(-c2cc(C)no2)[nH]1 (stereo not given)
inactive: A498 > 100 µM | RXF 393 > 100 µM | MDA-MB-435 > 100 µM | HL-60 35 µM | OVCAR-8 68.4 µM | M14 > 100 µM | HOP-62 > 100 µM | RPMI-8226 66.1 µM | SNB-75 57.9 µM | NCI/ADR-RES 41.3 µM | UACC-257 > 100 µM | DU-145 > 100 µM | UO-31 17.3 µM | MDA-N > 100 µM | T47D 50.4 µM | A549 51.4 µM | U-251 > 100 µM | HCT-116 88.9 µM | Malme-3M > 100 µM

COC1=CC(=O)c2c(O)c3c(c(O)c2C1=O)OC1(Oc2c(cc4cc(C)oc(=O)c4c2O)CC1O)C3O (stereo not given)
inactive: ACHN 41.3 µM | A498 47.9 µM | MDA-MB-435 33.7 µM | HL-60 33.3 µM | OVCAR-8 40.4 µM | M14 42.5 µM | HOP-62 35.2 µM | RPMI-8226 29.4 µM | SNB-75 60.4 µM | NCI/ADR-RES 46.9 µM | UACC-257 40.6 µM | DU-145 33.8 µM | UO-31 55.7 µM | MDA-N 20.8 µM | T47D 38.1 µM | A549 45.2 µM | U-251 39.9 µM | HCT-116 35.6 µM | Malme-3M 2.14 µM

CCOC(=O)c1c(C)noc1/N=N/N(CCO)CCO
inactive: ACHN 29 µM | A498 21.7 µM | RXF 393 15.1 µM | MDA-MB-435 34 µM | HL-60 26.1 µM | OVCAR-8 38.3 µM | M14 49.5 µM | HOP-62 32.6 µM | SNB-75 10.2 µM | NCI/ADR-RES 35.4 µM | UACC-257 25.6 µM | DU-145 49.7 µM | UO-31 25.5 µM | MDA-N 27.7 µM | T47D 10.8 µM | A549 36.8 µM | U-251 28.4 µM | HCT-116 28.7 µM | Malme-3M 45.1 µM
